The NIST ThermoML archive (doi:10.1021/je900743e)

Experiments:
[1] = Crystal; visual observation
[2] = wn = mass fraction of the nth substance listed; conditions: 101 kPa, Liquid; for viscosity: Capillary tube (Ostwald / Ubbelohde) method; for mass density: Pycnometric method

[Br-].[Br-].c1cc[n+](CCCCC[n+]2ccccc2)cc1 [1,1'-(pentane-1,5-diyl)-bis(pyridinium) dibromide]
Conditions	Normal melting temperature [°C]
[1]	198.00

CCO [ethanol] + O
[2]
Conditions	mass density, w1 = 0.1 [kg/m3]	mass density, w1 = 0.2 [kg/m3]	mass density, w1 = 0.3 [kg/m3]	mass density, w1 = 0.4 [kg/m3]	mass density, w1 = 0.5 [kg/m3]	viscosity, w1 = 0.1 [mPa·s]	viscosity, w1 = 0.2 [mPa·s]	viscosity, w1 = 0.3 [mPa·s]	viscosity, w1 = 0.4 [mPa·s]	viscosity, w1 = 0.5 [mPa·s]
293.15 K	981.8	968.2	953.6	935.5	913.9	1.538	2.183	2.701	2.91	2.87
303.15 K	979	964.1	947.4	927.2	905.6	1.16	1.553	1.87	2.02	2.022
313.15 K	974.6	958.7	940.3	919.8	897.6	0.9068	1.16	1.368	1.482	1.499
